# Results reported in patent US20120005765A1, “ANIMAL MODEL FOR PARKINSON'S DISEASE” (Saint Louis University, priority 2010, published 2012).
# “Also recorded” adds a separate entry of the source.
# Experiments:
# α-synuclein [1] = biological target: α-synuclein (Homo sapiens, UniProt P37840); assay: DOPAL-triggered α-synuclein aggregation in test tube, Western blot; format: biochemical; settings: AS 2 μM, 37° C., up to 4 h, DOPAL 1.5-1,500 μM
# Procedure: Determination of DOPAL-triggered α-synuclein aggregation in vitro. Western blot of DOPAL-triggered AS aggregation in test tube experiments. DOPAL was dissolved in 1% benzyl alcohol, then diluted to a final concentration of 1.5-1,500 μM as described previously. AS (2 μM) was incubated at 37° C. in 20 μl of 100 mM tris-HCl buffer (pH 7.2) with or without DA, DOPAL, DOPAC, or homovanillic acid (HVA) for up to 4 h. The reaction was stopped by heating at 70° C. for 3 min in SDS buffer. The entire mixture was transferred to the appropriate gel (vide infra).
# SDS-PAGE and immunoblotting. Ten micrograms of protein (estimated by Bio Rad protein reagent) was resolved by electrophoresis on 4-12% bis-tris gels run with MES SDS buffer, and 3-8% tris-acetate gels using tris-acetate running buffer. For immunoblotting, the protein was transferred to PVDF blotting membranes with […] pore size, blocked with 5% milk protein in tris buffered saline (TBS) containing 0.1% Tween 20, and incubated for 1 h with a AS 202 monoclonal antibody (1:2,500 dilution). Blots were washed five times with 5% milk protein in TBS and probed with horseradish peroxidase-conjugated anti-mouse secondary antibody (1:2,500). Blots were washed five times with TBS containing. 0.5% Tween 20 before detection with Super Signal (Pierce).
# Western blot analysis was performed to analyze DOPAL-induced aggregation of α-synuclein (FIG. 1). […]
# α-synuclein [2] = biological target: T1, α-synuclein (Rattus norvegicus, UniProt P37377); assay: DOPAL-triggered α-synuclein aggregation in vivo, intranigral injection, Western blot; settings: rat SN injected with 1 μg or 0.2 μg DOPAL, 1 and 4 hours
# T1 construct: from tissue; host or cells: substantia nigra of Sprague-Dawley rats
# Text: Western blot of DOPAL-triggered AS aggregation in vivo Intranigral DOPAL injections and tissue preparation for Western blot. The housing and nutrition of the rats used in this study and all procedures performed on them conformed to standards set forth in the Guide for the Care and Use of Laboratory Animals of the National Research Council (National Academy Press, 1996). The experimental protocols reported herein were reviewed and approved by the Animal Care Committee of the Saint Louis University.
# The details of the surgical and immunohistochemical methods have been previously described (Burke et al., Brain Res 989:205-213, 2003). Briefly, 2-month-old Sprague-Dawley rats (300 g; Harlan, Indianapolis, Ind., USA) were deeply anesthetized with 4% induction and maintained with 1% isoflurane. The heads of the rats were fixed in a stereotaxic apparatus (David Kopf, Tujunga, CA, USA). […]
# Rats for Western blot analysis were killed after 4 h by injecting pentobarbital (100 mg/kg, IP). […] The black microspheres were identified in the pellets and supernatants were analyzed with Western blot as described above using AS 202 and J3-actin antibodies. For the 4-h 1.0-μg DOPAL and control SN injections, the density of the bands on the blot was determined using the UnScan it program (Silk Scientific, Orem, Utah, USA). The results were expressed as units of AS aggregate/unit of actin. […]
# rats = assay: Rotational asymmetry after apomorphine; format: in vivo, rat; settings: apomorphine 0.4 mg/kg, n=6, p, 0.05 vs control rats
# Procedure: Determination of DOPAL-induced Parkinson's disease-like behavior Injections of DOPAL or ALDH1A1 antisense oligo into rat SN. To determine if increased levels of DOPAL in SN produces a behavioral model of PD, 3 groups of rats were tested: unilateral SN injection of 4 μg DOPAL in 6 rats; unilateral SN injection of 0.56 μg antisense oligonucleotide (oligo) targeted to aldehyde dehydrogenase (ALDH1A1) mRNA, the DOPAL catabolic enzyme in 3 rats; 5 non-injected rats. After 5-7 weeks, rats were injected with apomorphine (0.4 mg/kg, subcutaneously) and rotational asymmetry determined in each group just prior to sacrifice. After the brains were fixed and sectioned, the SN, and forebrain were stained immunohistochemically for tyrosine hydroxylase immunoreactivity (THir). See Section 3.
# Determination of rotational asymmetry. Rats first were injected subcutaneously with the dopamine agonist apomorphine (0.4 mg/kg) dissolved in 0.1 ascorbate saline solution. After waiting 5 min in their home cage, they were placed in a hemispheric rotation bowl 40 cm wide and 20 cm deep. Rotational behavior was then determined for 30 min and the number of ipsilateral and contralateral turns quantified by observation.
# Rotational asymmetry was assessed to quantify the effect of unilateral depletions of striatal dopamine from disruptions of nigrostriatal circuitry. The rotational asymmetry behavior of rats (n=6) changed dramatically after injections with DOPAL (FIG. 5).
# Behavioral asymmetry is considered the standard behavioral test for rodent models of Parkinson's disease. The column on the right is a summary of all the behaviors recorded in the rotational asymmetry test for all the rats ([…]).
compound,measurement,setting,value
"O=CCc1ccc(O)c(O)c1 [DOPAL, 3,4-dihydroxyphenylacetaldehyde]",aggregation of α-synuclein oligomers in vitro,α-synuclein [1],triggers dose-dependent aggregation
same,aggregation of α-synuclein in vivo,α-synuclein [2],triggers a selective dose and time dependent aggregation; also recorded: even small amounts of DOPAL still aggregate α-synuclein
same,rotational asymmetry after unilateral DOPAL injection into SN,rats,significantly preferred turning towards the side of the injection; also recorded: turning significantly towards the side of DOPAL injections
